The results in this text go back to the NIST ThermoML archive (doi:10.1016/j.fluid.2015.12.048).

Numbers after ± are expanded uncertainties.

The conditions of data set [1]: Crystal.
Data set [2] is described as follows: Molar enthalpy of transition or fusion. As to conditions: Crystal; DSC.

Take `Cc1ccc(C(C)C)c(O)c1` [3-methyl-6-isopropylphenol]: the Normal melting temperature in data set [1] (DTA) is 49.7 ± 0.4 °C; in data set [1] (visual observation), 50.0 ± 0.4 °C. For the same compound, the “Molar enthalpy of transition or fusion” value in data set [2] turned out to be 4.19 ± 0.103 kcal/mol.
On to `CC(C)[C@@H]1CC[C@@H](C)C[C@H]1O` [L-menthol], for which the Normal melting temperature in data set [1] (DTA) came to 43.6 ± 0.4 °C; in data set [1] (visual observation) it was 42.8 ± 0.4 °C. Further, the “Molar enthalpy of transition or fusion” value in data set [2] turned out to be 3.07 ± 0.086 kcal/mol.
On to `OCc1ccccc1` [benzenemethanol], for which the Normal melting temperature in data set [1] (DTA) and in data set [1] (visual observation) was -15.0 ± 0.4 °C throughout.
Regarding `CCCCCCCCCCO` [decan-1-ol], the Normal melting temperature in data set [1] (DTA) and in data set [1] (visual observation) was 7.0 ± 0.4 °C in each case.
